This note sets out measurements from US6372297B1, “Wood preservative oxathiazines” (Uniroyal Chemical Company, Inc., priority 1993, dated 2002).

Experiment [1] concerns mixed spore suspension: Aureobasidium pullulans, Aspergillus amstelodami, Ceratocystis pilifera, Cladosporium sp., Penicillium sp., Sclerophomas entoxylina …. Description: Control of molds and sapstain fungi in mini-board test. On the set-up: key to Surface score of treated mini-boards, 3 week incubation, 1500 ppm / Surface score of treated mini-boards, 3 week incubation, 2500 ppm: 0: Free of fungal growth; 1: Traces of fungal growth; 2: Little fungal growth; 3: Moderate fungal growth; 4: Vigorous to maximum growth (all surfaces covered with fungal growth).

In experiment [2] the test system is blue-stain fungi and molds. Description: Activity against blue-stain fungi and molds in a stick test (threshold concentrations). Conditions: beech sticks, 22° C., 90% relative humidity; for Threshold concentration (ppm), A. niger, score 0 / Threshold concentration (ppm), Aureobasidium, score 0 / Threshold concentration (ppm), Sclerophoma, score 0 / Threshold concentration (ppm), Trichoderma, score 0: minimum concentration to obtain score 0; for Threshold concentration (ppm), A. niger, score 1-2 / Threshold concentration (ppm), Aureobasidium, score 1-2 / Threshold concentration (ppm), Sclerophoma, score 1-2 / Threshold concentration (ppm), Trichoderma, score 1-2: minimum concentration to obtain score 1-2. The procedure, abridged: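 Wood sticks soaked 3 h in compound serially diluted in 50% ethanol, dried, then inoculated with fungal or spore suspension. Incubated at 22° C and 90% relative humidity until untreated controls grew, then growth scored 0 (none) to 4 (>50% surface covered).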

Take `O=S1(=O)CCON=C1c1cccs1` [Compound 34]: in experiment [1], the “Surface score of treated mini-boards, 3 week incubation, 1500 ppm” value was 0; the “Surface score of treated mini-boards, 6 week incubation, 1500 ppm” value is 2.4; the “Surface score of treated mini-boards, 3 week incubation, 2500 ppm” value was determined as 0; the “Surface score of treated mini-boards, 6 week incubation, 2500 ppm” value stood at 2.4. In experiment [2], the “Threshold concentration (ppm), A. niger, score 0” value is given as 500 ppm; the “Threshold concentration (ppm), A. niger, score 1-2” value was less than 250 ppm; the “Threshold concentration (ppm), Aureobasidium, score 0” value is more than 1000 ppm; the “Threshold concentration (ppm), Aureobasidium, score 1-2” value is 250-500 ppm. Further, in experiment [2], the “Threshold concentration (ppm), Sclerophoma, score 0” value is 100 ppm; the “Threshold concentration (ppm), Sclerophoma, score 1-2” value is given as less than 50 ppm; the “Threshold concentration (ppm), Trichoderma, score 0” value was 2500 ppm; the “Threshold concentration (ppm), Trichoderma, score 1-2” value is reported as 500-1000 ppm.
Regarding `[O-][S+]1CCON=C1c1cccs1` (stereo not drawn) [Compound 8], in experiment [1], the “Surface score of treated mini-boards, 3 week incubation, 1500 ppm” value is on record as 0; the “Surface score of treated mini-boards, 6 week incubation, 1500 ppm” value was 0.8; the “Surface score of treated mini-boards, 3 week incubation, 2500 ppm” value is recorded as 0; the “Surface score of treated mini-boards, 6 week incubation, 2500 ppm” value is recorded as 0.4. In experiment [2], the “Threshold concentration (ppm), A. niger, score 0” value is 1000 ppm; the “Threshold concentration (ppm), A. niger, score 1-2” value was 250-500 ppm; the “Threshold concentration (ppm), Aureobasidium, score 0” value is on record as more than 1000 ppm; the “Threshold concentration (ppm), Aureobasidium, score 1-2” value was 250-500 ppm. In experiment [2], the “Threshold concentration (ppm), Sclerophoma, score 0” value came to 100 ppm; the “Threshold concentration (ppm), Sclerophoma, score 1-2” value is given as 50-100 ppm; the “Threshold concentration (ppm), Trichoderma, score 0” value worked out at 1000 ppm; the “Threshold concentration (ppm), Trichoderma, score 1-2” value is recorded as 500-1000 ppm.
